Reference: patent US7939557B2, “Vascular endothelial receptor specific inhibitors” (Nova Southeastern University, priority 2006, dated 2011)

Key:
[1] = system: Human umbilical vein endothelial cell; experiment: In Vitro Angiogenesis Assay (morphogenesis / tube formation on Matrigel, ECMatrix kit); format: cell-based; set-up: key to Results (In Vitro Angiogenesis Assay score): Individual cells, well separated (+++++); Cells begin to migrate and align themselves (++++); Cells begin to line but not sprouting (+++); Visible Sprouting (++); Closed polygons begins to form (+); details: for Results (In Vitro Angiogenesis Assay score): HUVECs on ECMatrix, 8 hours at 37° C., inhibitors 1 mM and 10 mM, higher score = greater inhibition of angiogenesis
Method: Human umbilical vein endothelial cell was purchased from Cambrex Co. (East Rutherford, N.J.) and maintained in EGM (Endothelial Growth Medium) supplemented with 2% FBS, 0.1% EGF, 0.1% Hydrocortisone, 0.1% GA-1000 and 0.4% BBE.
The morphogenesis assay on Matrigel was performed according to the manufacturer's instructions (Chemicon International). The ECMatrix™ kit consists of laminin, collagen type IV, heparan sulfate, proteoglycans, entactin and nidogen. It also contains various growth factors (TGF-β, FGF) and proteolytic enzymes (plasminogen, tPA, MMPs) that are normally produced in EHS tumors. The incubation condition was optimized for maximal tube-formation as follows: 50 μl of EC Matrix™ was suitably diluted in the ratio 9:1 with 10× diluent buffer and used for coating the 96-well plate. The coated plates were incubated at 37° C. for 1 hr. to allow the Matrix solution to solidify. In the meantime the HUVECs that were cultured for 24 hours in EGM with 2% FBS was trypsinised and re-suspended in the growth media and the cells were counted. After 1 hr. pre-incubation of the plate with Matrix solution, the HUVECs were plated at 10^4 cells/well in the absence or in the presence of different VEGFR inhibitors (1 mM and 10 mM). After 8 hours incubation at 37° C., the cell three-dimensional organization (cellular network structures) was examined under an inverted photomicroscope. Each treatment was performed in triplicate.
Activated endothelial cells form cellular networks (mesh like structures) resembling capillary tubes sprouting into the stromal space. The formation of these cellular networks is a dynamic process, which started migration and alignment of cells followed by the development of capillary tubes like structures, sprouting of new branches and finally the formation of the cellular networks. Although this in vitro angiogenesis kit is designed only as a qualitative assay, we have made an attempt to quantitate the degree of angiogenesis using a scoring method. The scoring was based on the extent of the cellular networks that were observed as follows:
Individual cells, well separated (+++++)
Cells begin to migrate and align themselves (++++)
Cells begin to line but not sprouting (+++)
Closed polygons begins to form (+).
According to our qualitative assessment, the higher the scoring the greater the efficiency of the compound for inhibiting endothelial cell mediated angiogenesis.

[2] = system: VEGFR; experiment: Assay of VEGF Receptor Tyrosine Kinase Activity (VEGFR immunoprecipitated from cell lysate, non-radioactive PTK ELISA kit); format: biochemical
Description: Protein Tyrosine Kinases (PTKs) perform a critical role in signal transduction pathways that control cell proliferation, differentiation, metabolism, and apoptosis. Phosphorylation of proteins by PTKs is essential for the regulation of these biological mechanisms and defects in these pathways may result in a number of human diseases, including cancer. The important aspect of these enzymes in cellular regulation is accentuated by the fact that for a large number of kinases a corresponding viral oncogene product has been identified. […] CHEMICON's non-radioactive Tyrosine Kinase Activity Assay provides a simple, convenient and specific method for quantification and comparative determination of a wide range of PTKs. […]
The non-radioactive Tyrosine Kinase Activity Assay Kit consists of a synthetic Biotinylated Peptide Substrate, a Biotinylated Phosphopeptide, purified Phosphotyrosine specific monoclonal antibody conjugated to horseradish peroxidase (HRP) and other components required to perform 96 ELISA-based assays. […] The quantity of phosphate incorporated into the tyrosine kinase substrate is determined utilizing the phosphopeptide standard curve. […] The assay reaction would be terminated by the addition of 100 μl of stop solution and finally, the absorbance was measure on a standard microplate reader at 450 nm. […]

[3] = system: GI-101A; experiment: Cytotoxicity towards breast carcinoma cell line GI-101A; format: cell-based
[4] = system: MCF-7; experiment: Cytotoxicity towards breast carcinoma cell line MCF-7; format: cell-based

Compound	Results (In Vitro Angiogenesis Assay score) [1]	other results
O=C(Nc1ccc2c(c1)C(=O)NC2=O)c1nc2ccccc2s1 [Example 1]	++++	
N#Cc1ccc(C(=O)Nc2ccc3c(c2)C(=O)NC3=O)cc1 [Example 2]	+++	
CC(=O)c1ccc(C(=O)Nc2ccc3c(c2)C(=O)NC3=O)cc1 [Example 3]	++	
O=C(Nc1cccc2c1C(=O)NC2=O)c1ccc([N+](=O)[O-])o1 [Example 4]	+++++	EC50 ([1]; Homo sapiens, Endothelial cell, estimated, read-out: EC50 value for anti-antigenic effect): 0.025 µM; IC50 ([2]; VEGFR immunoprecipitated from cell lysate, PTK assay, read-out: IC50 for inhibiting VEGFR kinase): 0.4 µM; inhibition of VEGFR associated tyrosine kinase activity (in words) ([2]; level of inhibition increased with concentration): able to inhibit the VEGFR associated tyrosine kinase activity; cytotoxicity towards GI-101A [3]: produced cytotoxicity; cytotoxicity towards MCF-7 [4]: produced cytotoxicity
O=C(Nc1cccc2c1C(=O)NC2=O)c1ccc(S(=O)(=O)N2CCCCC2)cc1 [Example 5]	+++	
O=C(Nc1cccc2c1C(=O)NC2=O)c1ccc(Cl)s1 [Example 6]	+++	
